# According to patent US20250109120A1, “INDOLINE DERIVATIVES FOR TREATMENT AND/OR PREVENTION OF TUMOR OR CELL PROLIFERATIVE AND FIBROSIS DISEASES” (NATIONAL TAIWAN UNIVERSITY, priority 2023, published 2025):
# What was measured:
# A549 cells [1] = test: Nuclear p-Smad3 T179 and RNA polymerase II pS2/S5 after TGF-β1, fractionation and western blot; format: cell-based, human; details: compound k 5 μM, senexin A 5 μM, pirfenidone 1 mM; TGF-β1 10 ng/ml 3 h
# Description: FIGS. 8A-8B show the inhibitory effects of cellular distributions of TGF-β1-induced p-Smad3 T179, RNA polymerase II pS2/S5, and Smad3 after treatment with compound k. Human alveolar epithelial A549 cells were incubated with compound k (5 μM), senexin A (5 μM), or pirfenidone (1 mM) for 1 h, followed by stimulation with TGF-β1 (10 ng/ml) for 3 h. Protein expressions in the cytoplasmic and nuclear fractions were subjected to a Western blot analysis using the indicated antibodies. α-Tubulin and histone H3 served as loading controls for the cytoplasmic and nuclear fractions, respectively. Results are shown as the mean±SEM of three independent experiments. **p<0.01 and ***p<0.001 compared to the control group; #p<0.05 and ##p<0.01 compared to the TGF-β1-treated group.
# Cells (106) were incubated for 10 min at 4° C. in lysis buffer (20 mM HEPES at pH 7.4, 2 mM EGTA, 50 mM β-glycerophosphate, 0.1% Triton X-100, 10% glycerol, 1 mM DTT, 1 μg/mL of leupeptin, 5 μg/mL of aprotinin, 1 mM phenylmethylsulfonyl fluoride, and 1 mM sodium orthovanadate), scraped off, incubated on ice for an additional 10 min, and centrifuged at 17,000 g for 30 min at 4° C. Protein samples (20 μg) were then electrophoresed on SDS-polyacrylamide gel electrophoresis (PAGE) gels and transferred to a nitrocellulose membrane, which was then blocked by incubation for 30 min at room temperature with 5% bovine serum albumin (BSA) in Tris-buffered saline with 0.1% Tween-20 (TBST). Immunoblotting was performed by overnight incubation at 4° C. with primary antibodies in TBST, followed by incubation for 1 h at room temperature with horseradish peroxidase (HRP)-conjugated secondary antibodies. Bound antibodies were measured using enhanced chemiluminescence (ECL) reagent (GE Healthcare, UK) and exposed to photographic film.
# A Nuclear/Cytosol Fractionation Kit (Biovision, USA) was used to separate the cytosolic and nuclear fractions. […]
# CDK19 = CDK19 (Homo sapiens (Human), UniProt Q9BWU1); test: Kinase selectivity panel of 54 kinases (SelectScreen); format: biochemical; details: 150 nM, 54-kinase panel
# CDK19, sequence (Q9BWU1 whole entry): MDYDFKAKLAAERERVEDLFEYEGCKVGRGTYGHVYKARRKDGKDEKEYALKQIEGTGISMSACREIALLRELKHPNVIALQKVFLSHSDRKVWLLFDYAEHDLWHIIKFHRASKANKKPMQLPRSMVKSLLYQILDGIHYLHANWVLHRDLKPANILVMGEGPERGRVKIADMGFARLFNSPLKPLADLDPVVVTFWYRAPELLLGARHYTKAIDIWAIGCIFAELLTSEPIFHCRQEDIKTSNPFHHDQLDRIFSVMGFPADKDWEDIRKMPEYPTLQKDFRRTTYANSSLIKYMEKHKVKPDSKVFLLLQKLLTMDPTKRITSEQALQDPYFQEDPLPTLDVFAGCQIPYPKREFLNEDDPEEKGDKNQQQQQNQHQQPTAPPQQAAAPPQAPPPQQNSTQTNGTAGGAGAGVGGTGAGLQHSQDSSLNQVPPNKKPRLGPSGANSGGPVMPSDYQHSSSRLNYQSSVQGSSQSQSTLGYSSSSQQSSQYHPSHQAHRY
# Description: (§1) Compounds were tested for kinase inhibitory activity using the Thermo Fisher SelectScreen service (www.thermofisher.com/selectscreen). For CDK8, the LanthaScreen Eu Binding Assay was used. Briefly, the assay employed utilizes a fluorescent tracer to a given kinase. This is used to detect the addition of an anti-tag antibody. When the tracer and antibody bind to the targeted kinase, the Forster resonance energy transfer is measured. When a kinase inhibitor is added to the assay, the tracer/kinase binding will be disrupted, producing low FRET detection and indicating kinase inhibitory activity. Evaluation of kinase activity of additional kinase targets utilized the LanthaScreen binding assay or the Z′-Lyte activity assay provided by Thermo Fisher SelectScreen service. The IC50 values were determined using sequential doses, and the inhibition curves were provided by Thermo Fisher Scientific.
# (§2) Compound k was evaluated for kinase selectivity. […] The cytotoxicity of compound k was then assessed in DU145 and PC-3 cells, human prostate cancer cell lines isolated from patients with brain and bone metastasis, respectively. […] To further examine whether compound k still inhibited CDK8/19 inhibition in cells, we assessed whether compound treatment in DU145/PC-3 androgen-independent prostate cancer cells could inhibit STAT1-S727 phosphorylation. […]
# other CDKs and kinases = test: as above; format: biochemical; details: 150 nM, 54-kinase panel
# Description: as §1, §2
# A549 cells [2] = test: TGF-β1-induced oxidative stress (MDA, Nox4); format: cell-based, human; details: compounds 2 μM, TGF-β1 10 ng/ml 24 h
# Description: A549 cells were incubated with compounds k, b, a (2 μM), senexin A (5 μM), or pirfenidone (1 mM) for 1 h, followed by treatment with 10 ng/ml TGF-β1 for a further 24 h. Malondialdehyde (MDA) (FIG. 10A) and Nox4 (FIG. 10B) levels were detected. ***p<0.001 compared to the control group; #p<0.05, ##p<0.01, and ###p<0.001 compared to the TGF-β1-treated group.
# An end product of lipid peroxidation, malondialdehyde (MDA), was measured by spectrophotometry at a wavelength of 532 nm using malondialdehyde bis(dimethyl acetal) as the standard as per the assay protocol (Cell Biolabs, USA).
# CDK8 = CDK8 (Homo sapiens (Human), UniProt P49336); test: LanthaScreen Eu Binding Assay, Thermo Fisher SelectScreen kinase service
# CDK8, sequence (P49336 whole entry, looked up): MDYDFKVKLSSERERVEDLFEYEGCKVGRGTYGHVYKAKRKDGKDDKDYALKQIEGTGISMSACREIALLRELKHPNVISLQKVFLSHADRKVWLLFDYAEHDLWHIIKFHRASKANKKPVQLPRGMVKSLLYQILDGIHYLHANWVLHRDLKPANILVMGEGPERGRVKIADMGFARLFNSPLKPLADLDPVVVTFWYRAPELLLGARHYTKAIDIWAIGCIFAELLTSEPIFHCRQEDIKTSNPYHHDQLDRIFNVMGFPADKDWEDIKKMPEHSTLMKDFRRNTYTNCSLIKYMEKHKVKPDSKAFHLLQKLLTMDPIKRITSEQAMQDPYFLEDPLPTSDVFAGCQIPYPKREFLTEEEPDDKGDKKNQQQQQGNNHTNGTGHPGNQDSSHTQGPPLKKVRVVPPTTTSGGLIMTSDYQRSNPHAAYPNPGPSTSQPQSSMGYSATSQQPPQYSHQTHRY
# CDK8, sequence (P24863 whole entry partner, looked up): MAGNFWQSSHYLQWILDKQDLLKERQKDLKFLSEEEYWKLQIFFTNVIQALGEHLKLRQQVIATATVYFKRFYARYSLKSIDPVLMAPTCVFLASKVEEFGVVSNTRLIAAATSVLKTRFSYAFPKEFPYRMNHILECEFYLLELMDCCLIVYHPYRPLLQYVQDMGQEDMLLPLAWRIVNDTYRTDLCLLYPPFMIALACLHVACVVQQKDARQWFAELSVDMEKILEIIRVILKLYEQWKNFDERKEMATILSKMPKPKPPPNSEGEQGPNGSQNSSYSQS
# Description: as §1
# The fragment-based drug design strategy in this study led to optimized CDK8 inhibitors with promising results. CDK8-inhibitory activities of the compounds (a-n) designed by this fragment-based drug design strategy were tested using the SelectScreen kinase service of ThermoFisher Scientific. The inhibitory effects of the 14 compounds and the referenced compound were tested at a concentration of 10 μM.
# prostate cancer cells = test: Transwell migration assay; format: cell-based, human; details: both prostate cancer cells
# [3] = test system: CDH1 reporter in DU145 cells; test: 7TFP CDH1 reporter luciferase assay; format: cell-based, human; details: TGF-β1 10 ng/mL, 24 h
structure (smiles),measurement,setting,value
"CNC(=O)c1cc(Oc2ccc(NS(=O)(=O)c3ccc4c(c3)C(=C(C)C)C(=O)N4)c(F)c2)ccn1 [Compound k, 4-(3-Fluoro-4-((2-oxo-3-(propan-2-ylidene)indoline)-5-sulfonamido)phenoxy)-N-methylpicolinamide]",phosphorylation of p-Smad3 T179 and RNA Pol II pSer2/5,A549 cells [1],significantly reversed
same,CDK19 inhibition percentage,CDK19,40%
same,effect on other CDKs and kinases,other CDKs and kinases,no significant effect
same,TGF-β1-caused oxidative stress (MDA and Nox4 levels),A549 cells [2],markedly reduced
same,CDK8 inhibition percentage,"CDK8; 150 nM, 54-kinase panel",64%
same,CDK8 Inhibition percentage at 10 μM,CDK8; 10 μM,102%
same,IC50,CDK8; read-out: Inhibition of CDK8 IC50,129 nM
same,higher inhibitory potency compared to compound j,CDK8; vs compound j,~1.5 fold
same,increase in CDK8 inhibitory activity compared to E966-0530,CDK8; vs original compound E966-0530,13 fold
same,TGF-β1-triggered cell migration (transwell),prostate cancer cells,significantly inhibited
same,CDH1-driven luciferase expression reduced by TGF-β1,[3],reversed this effect to the control level
